This is an account of results in US20110086762A1, “4'4'-Dioxaspiro-Spirocyclically Substituted Tetramates” (Bayer CropScience AG, priority 2008, published 2011).

The subject of series [1] is Tetranychus urticae. Kind of series: Example C-3: plot trial on cotton 'Fibermax 977' against Tetranychus urticae. The format is in vivo. The note with it: 9 g a.i./ha, standard (EC 018), two applications 8 days apart. The procedure:
In plots of a size of 15 m^2, cotton plants of the cultivar “Fibermax 977” are treated in three replications against Tetranychus urticae using a pressure-operated knapsack sprayer (4 bar). Here, the active compound A.5 is applied as SC050 and SL050 at the stated application rate in a tank mix of 1 g/l of ammonium sulphate and 1 g/l of a.i. rapeseed oil methyl ester EW 500 and the standard abamectin (EC 018) using an application rate of in each case 300 l of water/ha. Two applications are carried out at an interval of 8 days. Evaluation is carried out 3, 7, 11 and 15 days after the first application by scoring the kill of the spider mites on the leaves.

Series [2] concerns Aphis gossypii. Kind of series: Example C-2: plot trial on cotton 'Fibermax' against Aphis gossypii. The note with it: 105 g a.i./ha, standard (SC 050). It is filed as in vivo. The procedure: In plots of a size of 10 m^2, cotton plants of the cultivar “Fibermax” are treated in three replications against Aphis gossypii using a pressure-operated knapsack sprayer (2.5 bar). Here, the active compound A.5 is applied as SC050 and SL050 at the stated application rate in a tank mix of 1 g/l of ammonium sulphate and 1 g/l of a.i. rapeseed oil methyl ester EW 500 in comparison to the standard imidacloprid (SC 050) using an application rate of 300 l of water/ha. Evaluation is carried out 3, 6, 9, 13 and 17 days after the application by counting the number of live animals on the leaves. Subsequently, the efficacy in percent is calculated according to Henderson and Tilton.

For another series, the system named is Myzus persicae. Kind of series: Myzus persicae test MYZUPE (bell pepper plants). The format is in vivo, green peach aphid (Myzus persicae). On the procedure:
(§1) Solvent: 7 parts by weight of dimethylformamide Emulsifier: 2 parts by weight of alkylaryl polyglycol ether To produce a suitable preparation of active compound, 1 part by weight of active compound is mixed with the stated amounts of solvent and emulsifier, and the concentrate is diluted with emulsifier-containing water to the desired concentration. If the addition of ammonium salts, penetrant or ammonium salts and penetrant is required, these are pipetted in at a concentration of 1000 ppm after dilution of the respective finished solution of the preparation. Bell pepper plants (Capsicum annuum) which are heavily infested by the green peach aphid (Myzus persicae) are treated by spraying with the active compound preparation of the desired concentration. After the desired period of time, the kill in % is determined. Here, 100% means that all of the animals have been killed; 0% means that none of the animals have been killed.

A short description of series [3]: Penetration of active compounds through enzymatically isolated cuticles of apple leaves. The format is in vitro ADME, apple trees of the Golden Delicious variety. The note with it: apple leaf cuticles, 20° C., 60% rh, average of 8 to 10 measurements. The source says:
Boosting of penetration into the plant by ammonium salts or phosphonium salts, and synergistic boosting of penetration into the plant by ammonium/phosphonium salts in combination with penetration promoters This test measured the penetration of active compounds through enzymatically isolated cuticles of apple leaves. The leaves used were cut in the fully developed state from apple trees of the Golden Delicious variety. The cuticles were isolated as follows: • first of all, leaf discs labelled on the underside with dye and formed by punching were filled by means of vacuum infiltration with a pectinase solution (0.2% to 2% strength) buffered to a pH of between 3 and 4, • sodium azide was then added and • the leaf discs thus treated were left to stand until the original leaf structure broke down and the non-cellular cuticle underwent detachment. After that, only those cuticles from the top leaf sides that were free from stomata and hairs were used further. They were washed a number of times in alternation with water and with a buffer solution, pH 7. […] Penetration was determined by applying 10 μl of the spray liquor of the composition below to the outer side of each of the cuticles. […] At regular intervals, samples were taken using an autosampler, and the amount of active compound was determined using HPLC. […]

Series [4] deals with Tetranychus urticae. Kind of series: Tetranychus test, OP-resistant (bean plants). The format is in vivo, greenhouse red spider mite (Tetranychus urticae). The note with it: TETRUR, active compound conc. 4 ppm. The procedure: Solvent: 7 parts by weight of dimethylformamide Emulsifier: 2 parts by weight of alkylaryl polyglycol ether To produce a suitable preparation of active compound, 1 part by weight of active compound is mixed with the stated amounts of solvent and emulsifier, and the concentrate is diluted with emulsifier-containing water to the desired concentration. If the addition of ammonium salts, penetrant or ammonium salts and penetrant is required, these are pipetted in at a concentration of 1000 ppm after dilution of the respective finished solution of the preparation. Bean plants (Phaseolus vulgaris) which are heavily infested by all stages of the greenhouse red spider mite (Tetranychus urticae) are treated by spraying with the active compound preparation of the desired concentration. After the desired period of time, the effect in % is determined. Here, 100% means that all of the spider mites have been killed; 0% means that none of the spider mites have been killed.

For series [5], the system named is Aphis gossypii. Kind of series: Aphis gossypii test, APHIGO spray treatment (cotton leaves). The format is in vivo, cotton aphid (Aphis gossypii). The note with it: active compound conc. 0.8 ppm. On the procedure: as §1, with “the preparation. Cotton leaves (Gossypium hirsutum) which are” for “the preparation. Bell pepper plants (Capsicum annuum) which are”, “by the cotton aphid (Aphis” for “by the green peach aphid (Myzus”, “cotton aphid (Aphis gossypii) are sprayed” for “peach aphid (Myzus persicae) are treated”, “gossypii) are sprayed with an” for “persicae) are treated by spraying with the”, “sprayed with an active compound” for “spraying with the active compound”, “of the aphids have been” for “of the animals have been”

On to abamectin, for which, in the series on Tetranychus urticae [1] (3 d after first application), the “Effect Abbott (%) Tetranychus urticae 3 d” value stood at 49.3%. The “Effect Abbott (%) Tetranychus urticae 7 d” value in the series on Tetranychus urticae [1] (7 d after first application) is 27.2%. Besides, the “Effect Abbott (%) Tetranychus urticae 11 d” value in the series with Tetranychus urticae [1] (11 d after first application) is recorded as 5.8%. For the same compound, in the series on Tetranychus urticae [1] (15 d after first application), the “Effect Abbott (%) Tetranychus urticae 15 d” value is 40.7%.
Regarding `O=[N+]([O-])NC1=NCCN1Cc1ccc(Cl)nc1` [imidacloprid], the “Efficacy (% H + T) Aphis gossypii 3 d” value with Aphis gossypii [2] (3 d) was determined as 78.1%. For the same compound, in the series with Aphis gossypii [2] (6 d), the “Efficacy (% H + T) Aphis gossypii 6 d” value was 84.1%. The “Efficacy (% H + T) Aphis gossypii 9 d” value in the series with Aphis gossypii [2] (9 d) amounted to 83.7%. For the same compound, the “Efficacy (% H + T) Aphis gossypii 13 d” value in the series with Aphis gossypii [2] (13 d) is 82.0%. Further, the “Efficacy (% H + T) Aphis gossypii 17 d” value in the series on Aphis gossypii [2] (17 d) turned out to be 64.7%.
As to `Cc1cc(Cl)cc(C)c1C1=C(O)C2(CCC3(CC2)OCCO3)NC1=O` [A.4], the “% effect after 7 d” value in the series with Myzus persicae (active compound conc. 10 ppm) was 100%.
Consider `Cc1cc(Cl)cc(C)c1C1=C(O)C2(CCC3(CC2)OCCO3)NC1=O` [Example A.5], for which the “Penetration after 24 h” value in series [3] (SC 050 + RME (1 g/l) + AS (1 g/l)) amounted to 3%; in series [3] (SL 050 + RME (1 g/l) + AS (1 g/l)), 7%.
With `Cc1cc(Cl)cc(C)c1C1=C(O)C2(CCC3(CC2)OCCO3)NC1=O` [A.6], the “% effect after 7 d” value in the series with Myzus persicae (active compound conc. 10 ppm) stood at 95%.
As for `Cc1cc(C)c(C2=C(O)C3(CCC4(CC3)OCCO4)NC2=O)c(C)c1` [A.2], the “% effect after 7 d” value in the series with Tetranychus urticae [4] was 70%; in the series with Myzus persicae (active compound conc. 0.8 ppm), 90%.
With `Cc1cc(Cl)cc(C)c1C1C(=O)NC2(CCC3(CC2)OCCO3)C1=O` (stereo not shown) [Ex. I-1-a-4, 8,8′-ethylenedioxy-3-[(2,6-dimethyl-4-chloro)-phenyl]-1-azaspiro[4,5]-decane-2,4-dione], the “% effect after 7 d” value in the series with Myzus persicae (active compound conc. 10 ppm) amounted to 75%.
Take `Cc1cc(C)c(C2=C(O)C3(CCC4(CC3)OCCO4)NC2=O)c(C)c1` [A.3]: the “% effect after 7 d” value in the series on Aphis gossypii [5] and in the series on Myzus persicae (active compound conc. 0.8 ppm) was 75% throughout.
In the case of `Cc1cc(C)c(C2=C(O)C3(CCC4(CC3)OCCO4)NC2=O)c(C)c1.[K+]` [Example A.1], in the series with Myzus persicae (active compound conc. 0.8 ppm), the “% effect after 7 d” value is 75%.
